Test results from ChEMBL document CHEMBL1148996, “6-Methoxylated and C-glycosyl flavonoids from Centaurea species” (1984).
In brackets after ≈: the same amount, converted by molar mass.

What was measured:
Assay type in all cases: functional
[1] = system: Pseudomonas aeruginosa; experiment: Antimicrobial activity against Pseudomonas aeruginosa ATCC 1539 by paper disk method
[2] = system: Escherichia coli; experiment: Antimicrobial activity against Escherichia coli ATCC 8739 by paper disk method
[3] = system: Bacillus subtilis; experiment: Antimicrobial activity against Bacillus subtilis ATCC 6633 by paper disk method
[4] = system: Klebsiella pneumoniae; experiment: Antimicrobial activity against Klebsiella pneumoniae UJ57 by paper disk method
[5] = system: Proteus vulgaris; experiment: Antimicrobial activity against Proteus vulgaris ATCC 8427 by paper disk method

Compound	MBC [1] [µg/mL]	MIC [1] [µg/mL]	MBC [2] [µg/mL]	MIC [2] [µg/mL]	MBC [3] [µg/mL]	MIC [3] [µg/mL]	MBC [4] [µg/mL]	MIC [4] [µg/mL]	MBC [5] [µg/mL]	MIC [5] [µg/mL]
COc1ccc(-c2cc(=O)c3c(O)c(OC)c(OC)cc3o2)cc1OC	250 (≈ 698 µM)	125 (≈ 349 µM)	500 (≈ 1400 µM)	250 (≈ 698 µM)						
O=c1cc(-c2ccc(O)cc2)oc2cc(O)cc(O)c12 [APIGENIN]	438 (≈ 1620 µM)	110 (≈ 405 µM)	438 (≈ 1620 µM)	110 (≈ 405 µM)	219 (≈ 810 µM)	110 (≈ 405 µM)	438 (≈ 1620 µM)	219 (≈ 810 µM)	438 (≈ 1620 µM)	54.8 (≈ 203 µM)
COc1ccc(-c2cc(=O)c3c(O)c(OC)c(OC)cc3o2)cc1O [EUPATORIN]			> 375	188 (≈ 545 µM)	188 (≈ 545 µM)	93.8 (≈ 272 µM)				
COc1c(O)cc2oc(-c3ccc(O)cc3)cc(=O)c2c1O [HISPIDULIN]					> 250	125 (≈ 416 µM)			> 250	125 (≈ 416 µM)
COc1cc(-c2cc(=O)c3c(O)c(OC)c(O)cc3o2)ccc1O [JACEOSIDINE]			250 (≈ 757 µM)	125 (≈ 378 µM)						
